# Counter-ions that a name gives are not always drawn. Like-named read-outs stand apart in the source and are kept apart here.
# Test system: production of amyloid beta protein Aβ(1-42) (γ-secretase) in human WT-APP overexpressing CHO cells
# Experiment: Cell-Based γ-Secretase Assay with ELISA Readout
# Details: read-out: Aβ 42B IC50 (Geometric Mean of 2-6 Determinations)
# Method in brief: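 Human WT-APP-overexpressing CHO cells were pre-cultured 24 h at 37° C, then exposed to compounds (eleven-point half-log series, 1% final DMSO) for ~24 h. Aβ(1-42) in conditioned media was captured with Aβ(1-42)-specific antibody and detected with Eu-labeled 6e10 by DELFIA TRF. IC50 by nonlinear regression against min/max inhibition controls.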
# [1] = human WT-APP overexpressing CHO cells, ~24 hours at 37° C., Aβ(1-42) ELISA, footnotes: a = geometric mean of >15 determinations, b = single determination, c = geometric mean of 7-15 determinations
SMILES,IC50 [1],"IC50 (CHO, 24 h)"
"COc1cccc2c(OCCN3CCn4c(ccc(-n5cnc(C)c5)c4=O)C3=O)cccc12 [Example 60, 2-{2-[(5-methoxy-1-naphthyl)oxy]ethyl}-7-(4-methyl-1H-imidazol-1-yl)-3,4-dihydro-2H-pyrido[1,2-a]pyrazine-1,6-dione, trifluoroacetate salt]",33.3 nM,–
"Cc1cn(-c2ccc3n(c2=O)CCN(CCOc2ccc(Cl)c4ccccc24)C3=O)cn1 [Example 6, 2-{2-[(4-chloro-1-naphthyl)oxy]ethyl}-7-(4-methyl-1H-imidazol-1-yl)-3,4-dihydro-2H-pyrido[1,2-a]pyrazine-1,6-dione]",36.5 nM,–
"Cc1cn(-c2ccc3n(c2=O)CCN(CCOc2ccccc2-c2csc(C(F)(F)F)n2)C3=O)cn1 [Example 40, 7-(4-methyl-1H-imidazol-1-yl)-2-(2-{2-[2-(trifluoromethyl)-1,3-thiazol-4-yl]phenoxy}ethyl)-3,4-dihydro-2H-pyrido[1,2-a]pyrazine-1,6-dione]",19.6 nM,–
"Cc1cn(-c2ccc3n(c2=O)CCN(CCOc2cccc4c2cc(C(F)(F)F)n4C)C3=O)cn1 [Example 102, 7-(4-methyl-1H-imidazol-1-yl)-2-(2-{[1-methyl-2-(trifluoromethyl)-1H-indol-4-yl]oxy}ethyl)-3,4-dihydro-2H-pyrido[1,2-a]pyrazine-1,6-dione]",33.7 nM,–
"Cc1cn(-c2ccc3n(c2=O)CCN(CCOc2cccc(-c4ccccc4)c2)C3=O)cn1 [Example 18, 2-[2-(biphenyl-3-yloxy)ethyl]-7-(4-methyl-1H-imidazol-1-yl)-3,4-dihydro-2H-pyrido[1,2-a]pyrazine-1,6-dione]",151 nM,–
"Cc1cn(-c2ccc3n(c2=O)CCN(CCOc2ccc(Cl)c(C(F)(F)F)c2)C3=O)cn1 [Example 12, 2-{2-[4-chloro-3-(trifluoromethyl)phenoxy]ethyl}-7-(4-methyl-1H-imidazol-1-yl)-3,4-dihydro-2H-pyrido[1,2-a]pyrazine-1,6-dione]",196 nM,–
"Cc1cn(-c2ccc3n(c2=O)CCN(CCOc2ccc(F)c(Cl)c2C(F)(F)F)C3=O)cn1 [Example 67, 2-{2-[3-chloro-4-fluoro-2-(trifluoromethyl)phenoxy]ethyl}-7-(4-methyl-1H-imidazol-1-yl)-3,4-dihydro-2H-pyrido[1,2-a]pyrazine-1,6-dione]",58.4 nM,–
"Cc1ccc(OCCN2CCn3c(ccc(-n4cnc(C)c4)c3=O)C2=O)c(Cl)c1 [Example 17, 2-[2-(2-chloro-4-methylphenoxy)ethyl]-7-(4-methyl-1H-imidazol-1-yl)-3,4-dihydro-2H-pyrido[1,2-a]pyrazine-1,6-dione]",153 nM,–
"Cc1cn(-c2ccc3n(c2=O)CCN(CCOc2ccc(Cl)cc2C(F)(F)F)C3=O)cn1 [Example 22, 2-{2-[4-chloro-2-(trifluoromethyl)phenoxy]ethyl}-7-(4-methyl-1H-imidazol-1-yl)-3,4-dihydro-2H-pyrido[1,2-a]pyrazine-1,6-dione]",103 nM,–
"Cc1cn(-c2ccc3n(c2=O)CCN(CCOc2cccc4c2oc2ccccc24)C3=O)cn1 [Example 26, 2-[2-(dibenzo[b,d]furan-4-yloxy)ethyl]-7-(4-methyl-1H-imidazol-1-yl)-3,4-dihydro-2H-pyrido[1,2-a]pyrazine-1,6-dione]",95.7 nM,–
"Cc1cn(-c2ccc3n(c2=O)CCN(CCOc2cc(C(F)(F)F)nc4cc(Cl)ccc24)C3=O)cn1 [Example 84, 2-(2-{[7-chloro-2-(trrfluoromethyl)quinolin-4-yl]oxy}ethyl)-7-(4-methyl-1H-imidazol-1-yl)-3,4-dihydro-2H-pyrido[1,2-a]pyrazine-1,6-dione]",71.5 nM,–
"Cc1cn(-c2ccc3n(c2=O)CCN(CCOc2ccc(F)c4sc(C(F)(F)F)nc24)C3=O)cn1 [Example 80, 2-(2-{[7-fluoro-2-(trifluoromethyl)-1,3-benzothiazol-4-yl]oxy}ethyl)-7-(4-methyl-1H-imidazol-1-yl)-3,4-dihydro-2H-pyrido[1,2-a]pyrazine-1,6-dione]",152 nM,–
"Cc1cn(-c2ccc3n(c2=O)CCN(CCOc2ccc(Cl)cc2-c2cc(C(F)(F)F)[nH]n2)C3=O)cn1 [Example 59, 2-(2-{4-chloro-2-[5-(trifluoromethyl)-1H-pyrazol-3-yl]phenoxy}ethyl)-7-(4-methyl-1H-imidazol-1-yl)-3,4-dihydro-2H-pyrido[1,2-a]pyrazine-1,6-dione]",530 nM,–
"Cc1cn(-c2ccc3n(c2=O)CCN(CCOc2ccccc2-c2nc(C(F)(F)F)ns2)C3=O)cn1 [Example 104, 7-(4-methyl-1H-imidazol-1-yl)-2-(2-{2-[3-(trifluoromethyl)-1,2,4-thiadiazol-5-yl]phenoxy}ethyl)-3,4-dihydro-2H-pyrido[1,2-a]pyrazine-1,6-dione]",7.2 nM,–
"Cc1cn(-c2ccc3n(c2=O)CCN(CCOc2ccc(Cl)cc2-n2ccc(C(F)(F)F)n2)C3=O)cn1 [Example 50, 2-(2-{4-chloro-2-[3-(trifluoromethyl)-1H-pyrazol-1-yl]phenoxy}ethyl)-7-(4-methyl-1H-imidazol-1-yl)-3,4-dihydro-2H-pyrido[1,2-a]pyrazine-1,6-dione, trifluoroacetate salt]",29.3 nM,–
"Cc1cn(-c2ccc3n(c2=O)CCN(CCOc2ccc(Cl)c(F)c2C(F)(F)F)C3=O)cn1 [Example 45, 2-{2-[4-chloro-3-fluoro-2-(trifluoromethyl)phenoxy]ethyl}-7-(4-methyl-1H-imidazol-1-yl)-3,4-dihydro-2H-pyrido[1,2-a]pyrazine-1,6-dione, trifluoroacetate salt]",66.3 nM,–
"Cc1cn(-c2ccc3n(c2=O)CCN(CCOc2cccc4c(Cl)ccc(Cl)c24)C3=O)cn1 [Example 46, 2-{2-[(5,8-dichloro-1-naphthyl)oxy]ethyl}-7-(4-methyl-1H-imidazol-1-yl)-3,4-dihydro-2H-pyrido[1,2-a]pyrazine-1,6-dione, trifluoroacetate salt]",9.38 nM,–
"Cc1cn(-c2ccc3n(c2=O)CCN(CCOc2ccccc2-c2ccc(F)cc2)C3=O)cn1 [Example 89, 2-{2-[(4′-fluorobiphenyl-2-yl)oxy]ethyl}-7-(4-methyl-1H-imidazol-1-yl)-3,4-dihydro-2H-pyrido[1,2-a]pyrazine-1,6-dione, formate salt]",101 nM,–
"COc1ccc2c(OCCN3CCn4c(ccc(-n5cnc(C)c5)c4=O)C3=O)cccc2c1 [Example 78, 2-{2-[(6-methoxy-1-naphthyl)oxy]ethyl}-7-(4-methyl-1H-imidazol-1-yl)-3,4-dihydro-2H-pyrido[1,2-a]pyrazine-1,6-dione]",87.5 nM,–
"Cc1cn(-c2ccc3n(c2=O)CCN(CCOc2ccccc2[Si](C)(C)C)C3=O)cn1 [Example 121, 7-(4-methyl-1H-imidazol-1-yl)-2-{2-[2-(trimethylsilyl)phenoxy]ethyl}-3,4-dihydro-2H-pyrido[1,2-a]pyrazine-1,6-dione]",–,30.2 nM
"COc1ccc2cccc(OCCN3CCn4c(ccc(-n5cnc(C)c5)c4=O)C3=O)c2c1 [Example 7, 2-{2-[(7-methoxy-1-naphthyl)oxy]ethyl}-7-(4-methyl-1H-imidazol-1-yl)-3,4-dihydro-2H-pyrido[1,2-a]pyrazine-1,6-dione]",42 nM,–
"Cc1cn(-c2ccc3n(c2=O)CCN(CCOc2ccccc2OC(F)(F)F)C3=O)cn1 [Example 15, 7-(4-methyl-1H-imidazol-1-yl)-2-{2-[2-(trifluoromethoxy)phenoxy]ethyl}-3,4-dihydro-2H-pyrido[1,2-a]pyrazine-1,6-dione]",275 nM,–

# Source: patent US9067934B2, “Bicyclic pyridinones” (Pfizer Inc., priority 2011, dated 2015)
